A word on the IC50: it is the concentration that inhibits the measured activity by half.

This is an account of results in patent US8309718B2, “4-pyrazolyl-N-arylpyrimidin-2-amines and 4-pyrazolyl-N-heteroarylpyrimidin-2-amines as janus kinase inhibitors” (Incyte Corporation, priority 2007, dated 2012).

Bounds are passed on as bounds.

The target of this assay is T1, human JAK2 (Homo sapiens, UniProt O60674).
T1 construct: JAK2 (a.a. 828-1132); His tag (N); made in house; host or cells: insect cells (baculovirus)
T1 sequence (O60674 828-1132): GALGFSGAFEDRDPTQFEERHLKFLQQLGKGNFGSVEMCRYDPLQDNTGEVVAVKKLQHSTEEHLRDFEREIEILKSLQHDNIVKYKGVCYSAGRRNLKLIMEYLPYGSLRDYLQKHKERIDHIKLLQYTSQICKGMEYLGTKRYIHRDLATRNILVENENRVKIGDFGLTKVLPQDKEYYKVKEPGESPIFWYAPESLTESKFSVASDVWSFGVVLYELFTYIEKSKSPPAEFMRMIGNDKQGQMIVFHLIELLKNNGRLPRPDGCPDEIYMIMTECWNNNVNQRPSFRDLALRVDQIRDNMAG
Kind of assay: In vitro JAK kinase assay (HTRF, phosphorylation of biotinylated peptide). In kind it is biochemical. Particulars: catalytic domain a.a. 828-1132, 30 μM ATP, 500 nM peptide, room temperature 1 hr; read-out: JAK-2 IC50. An outline of the steps: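 His-tagged human JAK2 catalytic domain (a.a. 828-1132), baculovirus/insect-cell expressed; phosphorylation of 500 nM biotinylated peptide at 30 μM ATP in 50 mM Tris pH 7.8, 100 mM NaCl, 5 mM DTT, 0.01% BSA. 1 h at room temperature, EDTA stop, HTRF read (Eu-Py20/SA-APC); IC50.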
`CCS(=O)(=O)N1CC(CC#N)(n2cc(-c3ccnc(Nc4ccc(C(=O)N5CC[C@@H](NC(C)=O)C5)cc4)n3)cn2)C1` [Example 280, (R)—N-(1-(4-(4-(1-(3-(cyanomethyl)-1-(ethylsulfonyl)azetidin-3-yl)-1H-pyrazol-4-yl)pyrimidin-2-ylamino)benzoyl)pyrrolidin-3-yl)acetamide]: the IC50 was less than 100 nM.

As to `COc1cnc(Nc2ccc(C(=O)N3CCN(C)CC3)cc2)nc1-c1cnn(C(CC#N)C2CCCC2)c1` (racemic) [Example 304, 3-cyclopentyl-3-(4-(5-methoxy-2-(4-(4-methylpiperazine-1-carbonyl)phenylamino)pyrimidin-4-yl)-1H-pyrazol-1-yl)propanenitrile], the IC50 is less than 100 nM.

Take `Cc1cnc(Nc2ccc(C(=O)N(C)C)cc2)nc1-c1cnn(C(CC#N)CC2CCN(S(=O)(=O)c3ccn(C)n3)CC2)c1` (racemic) [Example 67, 4-(4-(1-(1-cyano-3-(1-(1-methyl-1H-pyrazol-3-ylsulfonyl)piperidin-4-yl)propan-2-yl)-1H-pyrazol-4-yl)-5-methylpyrimidin-2-ylamino)-N,N-dimethylbenzamide]: the IC50 was less than 100 nM.

Take `Cc1cnc(Nc2ccc(C(=O)N3CCC(O)CC3)cc2)nc1-c1cnn(C(CC#N)C2CCCC2)c1` (racemic) [Example 88, 3-cyclopentyl-3-(4-(2-(4-(4-hydroxypiperidine-1-carbonyl)phenylamino)-5-methylpyrimidin-4-yl)-1H-pyrazol-1-yl)propanenitrile]: the IC50 is less than 100 nM.

With `Cc1cnc(Nc2ccc(C(=O)NCCO)cc2)nc1-c1cnn(C(CC#N)C2CCCC2)c1` (racemic) [Example 83, 4-(4-(1-(2-cyano-1-cyclopentylethyl)-1H-pyrazol-4-yl)-5-methylpyrimidin-2-ylamino)-N-(2-hydroxyethyl)benzamide], the concentration for half-maximal inhibition (IC50) is less than 100 nM.

For `CCS(=O)(=O)N1CC(CC#N)(n2cc(-c3ccnc(Nc4ccc(C(=O)N5CCC(OC)CC5)cc4)n3)cn2)C1` [Example 275, (1-(ethylsulfonyl)-3-4-(2-(4-((4-methoxypiperidin-1-yl)carbonyl)phenylamino)pyrimidin-4-yl)-1H-pyrazol-1-ylazetidin-3-yl)acetonitrile], the concentration for half-maximal inhibition (IC50) was less than 100 nM.

Regarding `N#CCC(C1CCCC1)n1cc(-c2ccnc(Nc3cccc(C(=O)N4CCC(c5ccccn5)C4)c3)n2)cn1` (mixture of isomers) [Example 152, 3-cyclopentyl-3-(4-(2-(3-(3-(pyridin-2-yl)pyrrolidine-1-carbonyl)phenylamino)pyrimidin-4-yl)-1H-pyrazol-1-yl)propanenitrile], the half-inhibitory concentration (IC50) is less than 100 nM.

For `COc1cnc(Nc2ccc(C(=O)N3CCOCC3)cc2)nc1-c1cnn(C(CC#N)C2CCCC2)c1` (racemic) [Example 302, 3-cyclopentyl-3-(4-(5-methoxy-2-(4-(morpholine-4-carbonyl)phenylamino)pyrimidin-4-yl)-1H-pyrazol-1-yl)propanenitrile], the 50% inhibitory concentration (IC50) is less than 100 nM.

Turning to `COc1cnc(Nc2cccc(C(=O)N3CCCC3)c2)nc1-c1cnn(C(CC#N)C2CC2)c1` (racemic) [Example 324, 3-cyclopropyl-3-[4-(5-methoxy-2-{[3-(pyrrolidin-1-ylcarbonyl)phenyl]amino}pyrimidin-4-yl)-1H-pyrazol-1-yl]propanenitrile], the IC50 was less than 100 nM.

`CCS(=O)(=O)N1CCC(CC(CC#N)n2cc(-c3ccnc(Nc4ccc(N5CCOCC5=O)cc4)n3)cn2)CC1` (racemic) [Example 96, 4-(1-(ethylsulfonyl)piperidin-4-yl)-3-(4-(2-(4-(3-oxomorpholino)phenylamino)pyrimidin-4-yl)-1H-pyrazol-1-yl)butanenitrile]: the IC50 was less than 100 nM.

With `CCS(=O)(=O)N1CC(CC#N)(n2cc(-c3ccnc(Nc4ccc(C(=O)N5CCN(C)CC5)cc4)n3)cn2)C1` [Example 279, 2-(1-(ethylsulfonyl)-3-(4-(2-(4-(4-methylpiperazine-1-carbonyl)phenylamino)pyrimidin-4-yl)-1H-pyrazol-1-yl)azetidin-3-yl)acetonitrile], the IC50 is less than 100 nM.

Take `N#CCC(CC1CCNCC1)n1cc(-c2ccnc(Nc3ccc(N4CCOCC4=O)cc3)n2)cn1` (racemic) [Example 92, 3-(4-(2-(4-(3-oxomorpholino)phenylamino)pyrimidin-4-yl)-1H-pyrazol-1-yl)-4-(piperidin-4-yl)butanenitrile]: the concentration for half-maximal inhibition (IC50) was greater than 100 nM.

Consider `N#CCC(C1CCCC1)n1cc(-c2ccnc(Nc3ccc(NC(=O)CN4CCC(O)CC4)cc3)n2)cn1` (racemic) [Example 205, N-(4-(4-(1-(2-cyano-1-cyclopentylethyl)-1H-pyrazol-4-yl)pyrimidin-2-ylamino)phenyl)-2-(4-hydroxypiperidin-1-yl)acetamide], for which the 50% inhibitory concentration (IC50) is less than 100 nM.

Turning to `CN(C)C(=O)c1ccc(Nc2nccc(-c3cnn(C(CC#N)CC4CCN(C(=O)c5ccc(F)cc5F)CC4)c3)n2)cc1` (racemic) [Example 59, 4-(4-(1-(1-cyano-3-(1-(2,4-difluorobenzoyl)piperidin-4-yl)propan-2-yl)-1H-pyrazol-4-yl)pyrimidin-2-ylamino)-N,N-dimethylbenzamide], the IC50 is less than 100 nM.

Take `N#CCC(C1CCCC1)n1cc(-c2ccnc(Nc3cccc(C(=O)N4CCC(Oc5ccccc5)CC4)c3)n2)cn1` (racemic) [Example 164, 3-cyclopentyl-3-(4-(2-(3-(4-phenoxypiperidine-1-carbonyl)phenylamino)pyrimidin-4-yl)-1H-pyrazol-1-yl)propanenitrile]: the IC50 was less than 100 nM.

In the case of `Cc1cc(C(=O)Nc2ccc(Nc3nccc(-c4cnn(C(CC#N)C5CCCC5)c4)n3)cc2)no1` (racemic) [Example 187, N-(4-(4-(1-(2-cyano-1-cyclopentylethyl)-1H-pyrazol-4-yl)pyrimidin-2-ylamino)phenyl)-5-methylisoxazole-3-carboxamide], the IC50 was less than 100 nM.

On to `N#CCC1(n2cc(-c3ccnc(Nc4ccc(-n5cccn5)cc4)n3)cn2)CC(C#N)C1` (single isomer, unassigned) [Example 341, 3-(cyanomethyl)-3-[4-(2-{[4-(1H-pyrazol-1-yl)phenyl]amino}pyrimidin-4-yl)-1H-pyrazol-1-yl]cyclobutanecarbonitrile], for which the IC50 is less than 100 nM.

Turning to `N#CCC(C1CCCC1)n1cc(-c2ccnc(Nc3cccc(C(=O)N4CCNC(=O)C4)c3)n2)cn1` (racemic) [Example 140, 3-cyclopentyl-3-(4-(2-(3-(3-oxopiperazine-1-carbonyl)phenylamino)pyrimidin-4-yl)-1H-pyrazol-1-yl)propanenitrile], the IC50 was less than 100 nM.

Regarding `COC(=O)Nc1cccc(Nc2nccc(-c3cnn(C(CC#N)C4CCCC4)c3)n2)c1` (racemic) [Example 116, Methyl 3-(4-(1-(2-cyano-1-cyclopentylethyl)-1H-pyrazol-4-yl)pyrimidin-2-ylamino)phenylcarbamate], the IC50 was less than 100 nM.

For the molecule `CCS(=O)(=O)N1CC(CC#N)(n2cc(-c3ccnc(Nc4ccc(C(=O)N5CC[C@@H](C#N)C5)cc4)n3)cn2)C1` [Example 276, (R)-1-(4-(4-(1-(3-(cyanomethyl)-1-(ethylsulfonyl)azetidin-3-yl)-1H-pyrazol-4-yl)pyrimidin-2-ylamino)benzoyl)pyrrolidine-3-carbonitrile], the IC50 is less than 100 nM.
